# Tests used:
# Format in all cases: cell-based
# [1] = biological target: T1, UCP1 (uncoupling protein 1) (Mus musculus, UniProt P12242); experiment: whole-mitoplast patch-clamp, inhibition by […] GDP in the bath
# T1 sequence (P12242 1-307): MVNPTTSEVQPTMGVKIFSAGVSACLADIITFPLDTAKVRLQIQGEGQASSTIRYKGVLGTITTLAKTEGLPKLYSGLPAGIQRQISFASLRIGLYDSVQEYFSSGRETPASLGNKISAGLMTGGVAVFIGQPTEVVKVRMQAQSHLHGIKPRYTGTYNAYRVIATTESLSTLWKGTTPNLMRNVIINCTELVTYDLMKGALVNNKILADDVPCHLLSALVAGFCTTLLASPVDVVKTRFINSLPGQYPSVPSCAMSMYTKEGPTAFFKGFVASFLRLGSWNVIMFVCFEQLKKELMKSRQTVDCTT
# [2] = biological target: T1, UCP1 (uncoupling protein 1); experiment: whole-mitoplast patch-clamp, inhibition of IUCP1 reactivated with exogenous OA; conditions: read-out: % inhibition at 50 μM
# [3] = biological target: T1, UCP1 (uncoupling protein 1); experiment: whole-mitoplast patch-clamp, inhibition by […] in the bath; conditions: read-out: % inhibition at 4 μM
smiles,measurement,setting,value
Nc1nc2c(ncn2[C@@H]2O[C@H](COP(=O)(O)OP(=O)(O)O)[C@@H](O)[C@H]2O)c(=O)[nH]1 [GDP],"whole-mitoplast patch-clamp, inhibition by 1 mM GDP in the bath",[1],elicited a large-amplitude current that was strongly inhibited by the classic UCP1 inhibitor GDP (Figure 1B)
O=C1NC(=O)/C(=C/c2ccc(C(=O)NC[C@@H]3C[C@@H](SC(c4ccccc4)(c4ccccc4)c4ccccc4)CN3C(=O)c3ccccc3C(=O)c3ccc(F)cc3F)cc2)S1 [pyrrophenone],inhibition at 50 µM,[2],77%
CCCCCCCC/C=C\CCCCCCCC(=O)SCCNC(=O)CCNC(=O)[C@H](O)C(C)(C)COP(=O)(O)OP(=O)(O)OC[C@H]1O[C@@H](n2cnc3c(N)ncnc32)[C@H](O)[C@@H]1OP(=O)(O)O [oleoyl-CoA],inhibition at 4 µM,[3],92%

# Reference: publication PMC3782081 (Cell, 2012)
